The nature of data set [1]: Manganese chelation, clear solution / precipitate test. The format is physicochemical. Particulars: five percent chelated manganese solution: 18 ml water, 58 grams (17% Mn) manganese nitrate solution, 82 grams compound; pH of 5. How it is done:
In 25 ml of water 10 ml of a manganese nitrate solution was added. Once the manganese nitrate was in solution, 30 ml of the N,N-diethanolsuccinamide amino ethanol solution produced in Example 17 was added to the mixture and the pH of the blend was adjusted to 6. Then 1 gram of potassium phosphate was added to the mixture.
A five percent chelated manganese solution was prepared by blending 18 ml of water with 58 grams of a (17% Mn) manganese nitrate solution. Once the manganese nitrate was in solution, 82 grams of the compound produced in Example 10 was added. […] This chelated manganese solution is suitable for blending with phosphorus fertilizers.

A short description of data set [2]: Iron chelation, clear solution / precipitate test. The format is physicochemical. How it is done:
A five percent chelated iron solution was prepared by blending 18 ml of water with 100 grams of a (10% Fe) ferric nitrate solution. Once in solution, 82 grams of the compound produced in Example 10 was added.
In 25 ml of water, 20 ml of a 1.8M ferric nitrate was added. Once in solution, 30 ml of the diethanolsuccinamide amino ethanol solution produced in Example 17 was added and the pH of the blend was adjusted to 9.2. Then 1 gram of potassium phosphate was added to the mixture.
Five drops of 1.8 M ferric nitrate were added to one liter of water and mechanically blended. Then 10 grams of potassium phosphate were added to the solution and allowed to form insoluble potassium salts.
In 400 ml of water, 20 ml of a 10% ferric nitrate solution were added, and 20 ml of the product from example 25 were added. With mechanical stirring, 40 grams of monopotassium phosphate was added the mix. The pH of the solution was then adjusted to 2 with HCl. The pH of the solution was then gradually raised with the addition of base to a pH of 10.
In 400 ml of water, 10 ml of 1.8 M ferric nitrate solution were added and 20 ml of the product from example 28 were added. With mechanical stirring, 20 grams of monopotassium phosphate was added to the mix. The pH of the solution was then adjusted to 2 with HCL. The pH of the solution was then gradually raised with the addition of Monoethanolamine to a pH of 10.
To a beaker containing one liter of water, 20 grams of potassium phosphate were added to form a clear solution.
Thirty grams of 1.8 M ferric nitrate were added to 100 ml of water. The pH of the solution was lowered to 4 with phosphorous acid, and then 5 grams of Potassium phosphate were then added to the blend. Later 30 ml of the solution produced in example 29 was added.
One hundred ml of the solution prepared in Example 41 was added to 500 ml of water and blended. 10 ml of 1.8-M ferric nitrate was then added to the mixture. […] The potassium salt of maleic acid was tested as a chelating agent.
In a separate flask 20 grams of maleic anhydride were blended in 500 ml of water. Potassium hydroxide was then added to the blend to raise the pH to 10. Later ten ml of 1.8M ferric nitrate was added to the mix and 10 grams of potassium phosphate was also blended in. […] The contents of the flask were then blended again while MEA was added to the mix.

Data set [3] can be described thus: Copper chelation, clear solution / precipitate test. Type of data set: physicochemical. The following applies: five percent chelated copper solution: 19 grams basic copper sulfate in 100 ml water, HCl, 71 grams compound; pH of 5. How it is done: A five percent chelated copper solution was prepared by blending 19 grams of basic copper sulfate in 100 ml of water. Concentrated HCl was added to solubilize the copper. Once in solution, 71 grams of the compound produced in Example 10 was added. […] This chelated copper solution is suitable for blending with phosphorus fertilizers.
In 250 ml of water 1 gram of copper sulfate was added and mechanically stirred. To this solution, 10 ml of the diethanolsuccinamide-amino ethanol solution produced in Example 17 was added. The pH of the blend was adjusted to 8.4 and 1 gram of potassium phosphate was added the mixture.
In another flask, 1 gram of copper sulfate was added to 250 ml of water and mechanically blended. Then, 1 gram of potassium phosphate was added to the blend. The pH of the solution was adjusted with potassium hydroxide. Immediately a powder solid was formed and precipitated. The hydroxide and phosphate salts of copper were formed.
In 400 ml of water, 1 gram of copper sulfate was added and 10 ml of the product from example 28 were added. With mechanical stirring, 20 grams of monopotassium phosphate were added to the mix. The pH of the solution was then adjusted to 2 with HCl. The pH of the solution was then gradually raised with the addition of Monoethanolamine to a pH of 9.
Two grams of basic copper sulfate were added to 200 ml of water. […]

The nature of data set [4]: Zinc chelation, clear solution / precipitate test. Type of data set: physicochemical. The procedure: In 25 ml of water 1 gram of zinc sulfate was added. Once the zinc sulfate was in solution, 30 ml of the N,N-diethanolsuccinamide amino ethanol solution produced in Example 17 was added and the pH of the blend was adjusted to 9.5. Then 1 gram of potassium phosphate was added tho the mixture.
In a separate flask 25 ml of water, 1 gram of zinc sulfate and 1 gram of potassium phosphate were blended together. Immediately a white precipitate formed.
In 400 ml of water, 20 ml of a 17% zinc nitrate solution were added and 60 ml of the product from example 28 were added. With mechanical stirring, 40 grams of monopotassium phosphate were added to the mix. The pH of the solution was then adjusted to 2 with HCl. The pH of the solution was then gradually raised with the addition of Monoethanolamine to a pH of 9.
A nine percent chelated zinc solution was prepared by blending 50 ml of water with 22.4 grams zinc oxide. Concentrated HCl was added until the solution was clear. Once in solution, 125 grams of the compound produced in Example 10 was added. […] This chelated zinc solution is suitable for blending with phosphorus fertilizers 2-ethanolaminesuccinic-N-ethanolsuccinicamide (tri potassium salt) has the following formula: […]
Ten ml of 17% zinc solution were added to a liter of water. Later 20 grams of potassium phosphate were added and dissolved. Zinc phosphate formed a precipitate. Phosphorous acid was then added to lower the pH and clear the solution. Once clear 30 ml of the solution prepared in example 35 was added. This acidic solution, which was acidic, then remained undisturbed for a day, after which the pH was adjusted to 10 with the addition of MEA.

The test system of data set [5] is Soybean. Description: Foliar applied IDS chelated minerals, tissue analysis, soybeans. The format is in vivo. How it is done: (§1) An experimental trial was completed testing the efficacy of the Iminodisuccinates (IDS) of this invention on five different crops. Below is the protocol and tissue analysis for both soil and foliar applied iminodisuccinate chelated mineral salts.
(§2) A stock solution for foliar application was prepared by blending 6000 ml of water with T-DAT 09, (Harcross Chemical Company, USA) a surfactant, added to spray mix at 2 drops per liter. • 1). 5 ml of 9% zinc was added to 1 liter of stock solution. • 2). 5 ml of 5% copper was added to 1 liter of stock solution. • 3). 5 ml of 5% manganese was added to 1 liter of stock solution. • 4). 5 ml of 5% Iron was added to 1 liter of stock solution. • 5). 4 ml of 9% zinc, 1 ml of 5% copper, 1 ml of 5% manganese, and 1 ml of 5% iron was added to 1 liter of stock solution. • 6). Stock solution without further addition.
(§3) All plants were sprayed until wet. Harvested material was placed in an oven for one day and sent to the lab for tissue analysis. Harvesting occurred thirty days after planting and some plants had not grown enough to get complete lab results reported. The harvested corn plants were cut at the whirl to insure only new leaves would be tested. The soybeans were clipped above the cotyledon. The alfalfa and clover were removed from the soil and the roots were removed. The wheat was cut at the tillering node.

Data set [6] concerns Wheat. Description: Foliar applied IDS chelated minerals, tissue analysis, wheat. Type of data set: in vivo. The procedure:
as §1, §2, §3

Data set [7] relates to Soybean. The experiment in a line: Soil applied IDS chelated minerals with 10-34-0, tissue analysis, soybeans. Type of data set: in vivo. How it is done: as §1
(§4) A). The control pots were watered without any further treatments.
(§5) B). An ammonium polyphosphate stock solution was prepared by adding 50 ml of the 10-34-0 to 4000 ml of water. Treated plants received 100 ml of the stock solution.
(§6) (C). The Zinc stock solution was prepared by blending 10 ml of IDS chelated 9% Zinc to a blend of 50 ml of 10-34-0 with 4000 ml of water. Treated plants received 100 ml of the zinc stock solution.
(§7) (D). The mixture of IDS chelated micronutrients was prepared by adding 4 ml of 9% Zinc, 1 ml of 5% Copper, 1 ml of 5% manganese, and 1 ml of 5% Iron. This mixture was then blended with 4000 ml of water and 50 ml of 10-34-0.
as §3

The test system of data set [8] is Corn. Description: Foliar applied IDS chelated minerals, tissue analysis, corn. Type of data set: in vivo. How it is done:
as §1, §2, §3

In data set [9] the test system is Wheat. Description: Soil applied IDS chelated minerals with 10-34-0, tissue analysis, wheat. Type of data set: in vivo. How it is done: as §1, §4, §5, §6, §7, §3
Data set [10] concerns Corn. The experiment in a line: Soil applied IDS chelated minerals with 10-34-0, tissue analysis, corn. Type of data set: in vivo. How it is done: as §1, §4, §5, §6, §7, §3
In data set [11] the test system is Clover. Description: Soil applied IDS chelated minerals with 10-34-0, tissue analysis, clover. Type of data set: in vivo. How it is done:
as §1, §4, §5, §6, §7, §3

Data set [12] deals with Clover. Description: Foliar applied IDS chelated minerals, tissue analysis, clover. Type of data set: in vivo. How it is done: as §1, §2, §3

For the compound “2-ethanolaminesuccinic-N-ethanolsuccinicamide [Example 10]”, the “appearance of finished solution / precipitates” value was “clear and free of precipitates” in data set [1]; “clear and free of precipitates” in data set [2] (five percent chelated iron solution: 18 ml water, 100 grams (10% Fe) ferric nitrate solution, 82 grams compound, pH of 5); “free of precipitates” in [3]; “clear and free of precipitates” in data set [4] (nine percent chelated zinc solution: 22.4 grams zinc oxide in 50 ml water, HCl, 125 grams compound, pH of 5).
Consider `O=C([O-])CC(C(=O)[O-])N(CCO)C(CC(=O)[O-])C(=O)[O-].[K+].[K+].[K+].[K+]` (stereo not shown) [Example 35, N,N-disuccinic-amino-ethanol tetra potassium salt], for which the “redissolution of precipitated ferric phosphate” value in [2] (20 grams potassium phosphate and 10 grams 1.8 M ferric solution in one liter water, 2.4 grams of the 0.75 M solution added) is “a clear yellow solution was produced inmediately”. The “appearance of solution / precipitates” value in [4] (10 ml 17% zinc solution and 20 grams potassium phosphate in a liter of water, phosphorous acid, 30 ml solution, after a day pH 10 with MEA) is “remained clear, free of precipitates, and colorless”.
As to ZINC, the “zinc in plant tissue, TREATED” value with Soybean [5] (harvested 30 days after planting, control 63.8) was found to be 1000 parts per million; with Wheat [6] (harvested 30 days after planting, control 44.3), 563 parts per million; in the data set with Soybean [7] (soil applied with 10-34-0, harvested 30 days after planting, control 19.4), 136; with Corn [8] (harvested 30 days after planting, control 15.6), 792 parts per million; in the data set with Wheat [9] (soil applied with 10-34-0, harvested 30 days after planting, control 39), 93.1; in the data set on Corn [10] (soil applied with 10-34-0, harvested 30 days after planting, control 24), 69.6. Also, the “zinc in plant tissue, TREATED” value turned out to be 231 in the data set on Clover [11] (soil applied with 10-34-0, harvested 30 days after planting, control 53.4) and 1264 parts per million with Clover [12] (harvested 30 days after planting, control 56.7). The “zinc in plant tissue, CHANGE” value was determined as 936.2 parts per million in the data set on Soybean [5] (treated minus control 63.8); 518.7 parts per million in the data set with Wheat [6] (treated minus control 44.3); 116.6 in the data set with Soybean [7] (soil applied, treated minus control 19.4); 776.4 parts per million with Corn [8] (treated minus control 15.6); 54.1 in the data set with Wheat [9] (soil applied, treated minus control 39); 45.6 in the data set with Corn [10] (soil applied, treated minus control 24). The “zinc in plant tissue, CHANGE” value in the data set with Clover [11] (soil applied, treated minus control 53.4) is 177.6; in the data set on Clover [12] (treated minus control 56.7), 1207.3 parts per million. Besides, the “zinc in plant tissue, % change” value with Soybean [5] (versus control 63.8) is 1467%; in the data set with Corn [8] (versus control 15.6) it was 4977%; in the data set with Wheat [9] (soil applied, versus control 39), 139%; in the data set on Clover [11] (soil applied, versus control 53.4), 333%. Also, the “zinc in plant tissue, %” value with Soybean [7] (soil applied, versus control 19.4) is listed as 601%; in the data set with Corn [10] (soil applied, versus control 24), 190%.

Source of the values: patent US7166688B1, “Chelation compositions” (LidoChem, Inc., priority 2000, dated 2007).
